Assay results as given in patent US20240182475A1 (Université de Lausanne, priority 2021, published 2024).
pEC50: −log10 of the molar value.

Experiments:
[1] = tested on: primary human chondrocytes; assay: Primary human chondrocyte calcification (Alizarin red); assay type: cell-based; conditions: secondary CPP 24 h, 50 uM
Description: (a) WT and Cse-deficient chondrocytes were incubated with a CSE activator (SU004, 50 μM) previously identified by high-through put screen, or with the equivalent volume of DMSO (0.1%) for 24 hours in calcification medium. STS 25 mM was used as a positive control for calcification inhibition. Calcium-containing crystals were stained with Alizarin red and quantified. (b) Cytotoxicity was assessed by LDH measurement and expressed as % over 100% cytotoxicity. (c) IL-6 secretion was measured by ELISA in supernatant of WT chondrocytes incubated with SU004 50 μM or STS 25 mM for 24 hours in calcification medium. (d) Primary human chondrocytes from 3 OA patients (P1, P2, P3) were incubated with SU004 50 μM, or with the equivalent volume of DMSO (0.1%) for 24 hours in calcification medium. Calcium-containing crystals were stained with Alizarin red and quantified. (e) Cytotoxicity was assessed by LDH measurement and expressed as % over 100% cytotoxicity. (f) IL-6 secretion was measured by ELISA in supernatant of human chondrocytes incubated for 24 hours with SU004 50 μM in calcification medium. *p<0.05, ** p<0.01, ****p<0.0001.
1. Alizarin red staining of primary human chondrocytes stimulated with secondary CPP for 24 h in DMEM+10% FBS and treated or not with 50 uM of compounds.
Chondrocytes were isolated from cartilage pieces incubated overnight in the digestion enzyme Liberase™ (Roche). […]

recombinant human CSE = recombinant human CSE (Homo sapiens, UniProt P32929); assay: CSE activity (AzMC probe assay), H2S production by recombinant human CSE; assay type: biochemical; conditions: for CSE production of H2S (AzMC fluorescence, kinetic 2 h): 50 uM, 2 μg rCSE, 10 mM L-cysteine, 5 uM PLP, Tris-HCl pH 8, vs vehicle
Sequence of recombinant human CSE (P32929 whole entry): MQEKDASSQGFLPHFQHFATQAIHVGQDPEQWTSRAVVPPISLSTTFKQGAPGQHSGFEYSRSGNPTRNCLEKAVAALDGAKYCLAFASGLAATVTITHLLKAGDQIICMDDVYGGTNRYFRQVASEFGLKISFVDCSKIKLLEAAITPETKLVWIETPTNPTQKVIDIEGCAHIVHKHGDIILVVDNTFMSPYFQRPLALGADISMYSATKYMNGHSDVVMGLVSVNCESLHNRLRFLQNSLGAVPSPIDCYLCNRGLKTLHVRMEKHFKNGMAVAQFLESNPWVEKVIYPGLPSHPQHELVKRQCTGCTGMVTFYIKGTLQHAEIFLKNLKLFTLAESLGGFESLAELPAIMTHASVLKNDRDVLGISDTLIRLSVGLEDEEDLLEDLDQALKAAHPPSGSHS
Description: The activity of recombinant human CSE (rCSE) was tested in the presence of C5, compound 8 (50 uM), Z20 compound 13 (50 uM) or vehicle (DMSO). Briefly, compounds were added in reaction buffer (50 mM Tris-HCl, pH 8) containing 2 μg of rCSE, 10 mM CSE substrate L-cysteine, 5 uM pyridoxal 5′-phosphate (PLP). After addition of 10 μM of the H2S sensitive fluorescent probe 7-azido-4-methylcoumarin (AzMC) in a total volume of 100 μl, fluorescence was immediately measured in kinetic mode for 2 h at 37° C. with SpectraMax M5 reader, with excitation and emission wavelengths of 365 nm and 450 nm, respectively. Statistical analysis was determined using simple linear regression with p<0.0001 for C5 vs. vehicle and p<0.0002 for Z20 vs. vehicle.
Recombinant human CSE (1 μg/well) was incubated with various concentrations of compounds (all in final 0.1% DMSO), or with 0.1% DMSO as a control, in 10 mM sodium phosphate buffer pH 8.2. Next, 10 mM L-cysteine and 1 mM PLP and 10 μM of the probe AzMC were then added to reach 100 μL total volume. Fluorescence was measured for 3 h at 37° C. with excitation and emission wavelengths of 365 nm and 450 nm, respectively, in a 96-well half area black plate with transparent bottom.
Dose-response curve of each compound was performed, using triplicate wells for each tested doses. The background (10 mM sodium phosphate buffer with L-cysteine, PLP and AzMC) was subtracted from all values. Each mean value was converted to percent activity (0% defined as the smallest mean in each data set, 100% defined as the highest mean in each data set). The data were normalized using the four parameter logistic model (4PL) equation to calculate EC50 using GraphPad Prism.

MOVAS cells = assay: MOVAS cell calcification assay (Alizarin red); assay type: cell-based, mouse; conditions: for Mineralization (Alizarin red): 50 uM
Description: A) Alizarin red staining of MOVAS cells stimulated with sCPP for 24 h in DMEM+10% FBS and treated or not with 50 uM of compounds. […] Statistical analysis was determined using one-way ANOVA with ***p<0.001. C) Percentage of cytotoxicity (LDH %) in MOVAS treated or not with compounds for 24 h. D) MOVAS cells were seeded onto half-area 96-well plate and incubated overnight. Then C5 or C6 at 50 uM or vehicle (DMSO), L-cysteine at 10 mM, PLP at 5 uM and the H2S sensitive fluorescent probe AzMC at 10 μM were added. The fluorescence was immediately measured in kinetic mode for 2 h at 37° C. with SpectraMax M5 reader, with excitation and emission wavelengths of 365 nm and 450 nm, respectively.
A) Alizarin red staining of Movas cells stimulated with sCPP for 24 h in DMEM+10% FBS and treated or not with 50 uM of Z20. […] C) Percentage of cytotoxicity (LDH %) in murine chondrocytes treated or not with Z20 for 24 h. Statistical analysis was determined using one-way ANOVA with ***p<0.001.
Alizarin red staining of MOVAS cells stimulated with sCPP for 24 h in DMEM+10% FBS and treated or not with different concentrations of compounds (A: C6) and (B: Z20). The graphs show Alizarin red absorbance at 570-630 nm. Statistical analysis was determined using one-way ANOVA with *p<0.05, **p<0.01, ***p<0.001.
CPP were generated by preparing 20 ml DMEM containing 10% FBS, 1 mmol/L CaCl2, 3.5 mmol/L inorganic phosphate (1.36 mmol/L NaH2PO4 and 2.14 mmol/L Na2HPO4) (Aghagolzadeh et al. Atherosclerosis, 2016). After 7 days incubation at 37° C., the suspension was centrifuged at 25000 g for 2 h at 4° C., and the pellet containing CPP was resuspended in 1 ml DMEM and stored at −20° C. until further use.
Mouse vascular smooth muscle cell line (MOVAS) cells were cultured according to the manufacturer's guidelines in DMEM culture medium supplemented with 10% FBS. Cells were cultured at 37° C. in a humidified atmosphere with 5% CO2. All cell culture experiments in 96-well plates were performed in triplicates and were repeated independently two times.
For calcification experiments, cells were seeded in 96-well plates at a density of 50,000 cells/well and left to attach for 18 h. Calcification of cell monolayers was induced by CPP (equivalent to 50 μg Ca/mL) for 24 h at 37° C., 5% CO2 in presence of various concentrations of compounds (all in final 0.1% DMSO), or of 0.1% DMSO as a control, to reach a final volume of 200 μl/well. Calcium deposition was assessed by 0.5% w/v Alizarin Red staining (pH 4.2). Briefly, after PBS washing, methanol fixation for 10 min at 4° C., and milli-Q water washing, cells were incubated for 60 min with 200 μL Alizarin Red solution and then washed four times with milli-Q water. Quantification was performed after crystal dissolution with cetylpyridinium chloride (10%) for 18 h. The absorbance was measured at 570 and 630 nm using the Spectramax M5e reader (Molecular Devices). The background (alizarin red staining obtained with cells in the absence of CPP) was subtracted from all values.

| Compound | Mineralization (Alizarin red) [1] | CSE production of H2S (AzMC fluorescence, kinetic 2 h) (recombinant human CSE) | pEC50 (recombinant human CSE; EC50 calculated by the four-parameter logistic model) | inhibition at 2 µM (MOVAS cells; Mus musculus, MOVAS, at 2 uM, read-out: Calcification assay Max calcification inhibition (%) at the indicated dose of compound) | Mineralization (Alizarin red) (MOVAS cells; sCPP 24 h) | Mineralization (Alizarin red absorbance 570-630 nm) (MOVAS cells; sCPP 24 h, different concentrations) |
| --- | --- | --- | --- | --- | --- | --- |
| Cn1ncc2c(Nc3cnn(CC4CCCO4)c3)ncnc21 (stereo not drawn) [Compound 8, N-{1-methyl-1H-pyrazolo[3,4-d]pyrimidin-4-yl}-1-[(oxolan-2-yl)methyl]-1H-pyrazol-4-amine] | inhibit primary human chondrocyte mineralization | augments CSE production of H2S | 7.16 | 38% | inhibit murine vascular smooth muscle cells (MOVAS cells) mineralization | – |
| CCn1cnc2c(Nc3cnn(CC4CCCO4)c3)ncnc21 (stereo not drawn) [Compound 13] | inhibit primary human chondrocyte mineralization | augments CSE production of H2S | – | – | inhibits MOVAS cells mineralization | Dose-dependent effect |
